Where two headings read alike, the source gives them in different places.
Legend:
Test in all cases: SelectScreen Kinase Profiling, single point inhibition and IC50 for off-target kinases
Format in all cases: biochemical
off-target kinases [1] = target: off-target kinases (Homo sapiens, UniProt Q00526); conditions: CDK3/cyclin E1, LanthaScreen Binding
off-target kinases [2] = target: off-target kinases (Homo sapiens, UniProt P08581, M1250T); conditions: MET M1250T, mutant y, ZLYTE, ATP Km app
off-target kinases [3] = target: off-target kinases (Homo sapiens, UniProt P27361); conditions: MAPK3 (ERK1), ZLYTE, ATP Km app
Chain of off-target kinases (Homo sapiens, UniProt P27361) (P27361 whole entry): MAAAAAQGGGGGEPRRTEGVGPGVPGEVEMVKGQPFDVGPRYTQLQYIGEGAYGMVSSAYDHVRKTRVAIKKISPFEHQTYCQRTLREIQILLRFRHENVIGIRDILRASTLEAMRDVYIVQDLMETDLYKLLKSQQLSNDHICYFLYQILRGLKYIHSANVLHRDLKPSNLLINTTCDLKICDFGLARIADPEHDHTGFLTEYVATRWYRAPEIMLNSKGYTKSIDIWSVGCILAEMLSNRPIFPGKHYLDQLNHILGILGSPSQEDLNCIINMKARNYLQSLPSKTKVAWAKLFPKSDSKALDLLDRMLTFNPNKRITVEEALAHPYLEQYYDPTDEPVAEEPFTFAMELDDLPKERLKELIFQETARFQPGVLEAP

off-target kinases [4] = target: T1, off-target kinases (Homo sapiens, UniProt Q15139); conditions: PRKD1 (PKC mu), ATP Km app, ZLYTE
T1 sequence (Q15139 1-912): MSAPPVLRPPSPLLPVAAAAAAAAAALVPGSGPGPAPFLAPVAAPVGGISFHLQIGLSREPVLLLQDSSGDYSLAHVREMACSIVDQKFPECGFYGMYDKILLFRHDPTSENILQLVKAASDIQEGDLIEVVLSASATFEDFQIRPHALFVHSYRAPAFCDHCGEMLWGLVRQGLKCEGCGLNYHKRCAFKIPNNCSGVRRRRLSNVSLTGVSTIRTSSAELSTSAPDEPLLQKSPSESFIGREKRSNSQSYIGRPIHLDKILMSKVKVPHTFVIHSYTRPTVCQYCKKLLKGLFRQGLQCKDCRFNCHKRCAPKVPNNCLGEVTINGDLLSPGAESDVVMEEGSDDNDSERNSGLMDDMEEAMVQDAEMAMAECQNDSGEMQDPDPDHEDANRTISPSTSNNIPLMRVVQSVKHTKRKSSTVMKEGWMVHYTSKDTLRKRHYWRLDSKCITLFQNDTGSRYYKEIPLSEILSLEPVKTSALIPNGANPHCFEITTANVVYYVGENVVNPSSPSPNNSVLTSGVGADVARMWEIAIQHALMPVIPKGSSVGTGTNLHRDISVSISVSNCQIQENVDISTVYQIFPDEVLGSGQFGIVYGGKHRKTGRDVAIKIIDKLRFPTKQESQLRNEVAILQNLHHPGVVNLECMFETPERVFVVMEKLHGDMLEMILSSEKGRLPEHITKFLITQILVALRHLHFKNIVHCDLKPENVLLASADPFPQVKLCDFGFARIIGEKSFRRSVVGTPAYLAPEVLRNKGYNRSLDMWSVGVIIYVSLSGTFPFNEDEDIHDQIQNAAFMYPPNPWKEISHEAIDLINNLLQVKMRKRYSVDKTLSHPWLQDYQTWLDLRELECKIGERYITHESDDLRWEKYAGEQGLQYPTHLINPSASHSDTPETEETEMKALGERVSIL

off-target kinases [5] = target: off-target kinases (Homo sapiens, UniProt Q06187); conditions: BTK, ZLYTE, ATP Km app
Chain of off-target kinases (Homo sapiens, UniProt Q06187) (Q06187 whole entry): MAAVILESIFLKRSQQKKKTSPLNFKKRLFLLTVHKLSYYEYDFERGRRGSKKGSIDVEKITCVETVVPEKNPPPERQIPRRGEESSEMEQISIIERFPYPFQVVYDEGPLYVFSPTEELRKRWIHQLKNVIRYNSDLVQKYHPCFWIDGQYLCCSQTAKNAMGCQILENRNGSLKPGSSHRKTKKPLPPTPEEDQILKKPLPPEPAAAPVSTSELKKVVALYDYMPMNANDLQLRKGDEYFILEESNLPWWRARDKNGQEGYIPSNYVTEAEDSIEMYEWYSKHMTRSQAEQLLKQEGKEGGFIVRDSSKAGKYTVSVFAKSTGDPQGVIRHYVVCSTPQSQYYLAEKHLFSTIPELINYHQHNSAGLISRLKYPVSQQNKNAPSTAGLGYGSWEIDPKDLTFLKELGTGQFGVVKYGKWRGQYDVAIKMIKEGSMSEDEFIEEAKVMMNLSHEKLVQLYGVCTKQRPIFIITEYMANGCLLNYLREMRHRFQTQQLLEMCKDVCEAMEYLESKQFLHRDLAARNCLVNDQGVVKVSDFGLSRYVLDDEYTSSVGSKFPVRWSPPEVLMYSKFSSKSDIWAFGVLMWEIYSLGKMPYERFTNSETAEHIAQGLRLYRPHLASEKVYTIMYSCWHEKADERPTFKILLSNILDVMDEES

off-target kinases [6] = target: off-target kinases (Homo sapiens, UniProt Q16584); conditions: MAP3K11 (MLK3), LanthaScreen Binding
Chain of off-target kinases (Homo sapiens, UniProt Q16584) (Q16584 whole entry): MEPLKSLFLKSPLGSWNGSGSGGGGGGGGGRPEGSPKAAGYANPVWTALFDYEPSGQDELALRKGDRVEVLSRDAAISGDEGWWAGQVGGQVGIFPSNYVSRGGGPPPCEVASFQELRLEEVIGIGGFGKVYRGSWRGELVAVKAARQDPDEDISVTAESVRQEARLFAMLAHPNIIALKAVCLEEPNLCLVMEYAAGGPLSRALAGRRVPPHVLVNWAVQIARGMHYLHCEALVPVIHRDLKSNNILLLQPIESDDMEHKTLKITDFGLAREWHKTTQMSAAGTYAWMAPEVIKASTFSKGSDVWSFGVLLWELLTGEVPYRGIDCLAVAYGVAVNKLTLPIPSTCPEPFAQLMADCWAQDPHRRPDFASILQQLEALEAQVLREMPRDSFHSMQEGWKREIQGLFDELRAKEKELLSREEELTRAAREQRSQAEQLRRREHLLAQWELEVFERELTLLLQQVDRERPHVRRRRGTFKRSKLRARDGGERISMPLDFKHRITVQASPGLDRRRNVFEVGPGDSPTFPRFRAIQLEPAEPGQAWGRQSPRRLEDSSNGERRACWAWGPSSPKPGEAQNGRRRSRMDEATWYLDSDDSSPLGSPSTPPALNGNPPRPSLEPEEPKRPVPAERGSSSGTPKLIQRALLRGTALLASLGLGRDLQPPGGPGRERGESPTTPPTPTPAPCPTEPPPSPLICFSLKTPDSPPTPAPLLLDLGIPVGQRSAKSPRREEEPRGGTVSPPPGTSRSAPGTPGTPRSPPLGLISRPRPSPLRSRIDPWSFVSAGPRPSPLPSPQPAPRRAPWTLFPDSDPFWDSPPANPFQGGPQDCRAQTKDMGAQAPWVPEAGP

Chain of off-target kinases (Homo sapiens, UniProt Q00526) (Q00526 whole entry): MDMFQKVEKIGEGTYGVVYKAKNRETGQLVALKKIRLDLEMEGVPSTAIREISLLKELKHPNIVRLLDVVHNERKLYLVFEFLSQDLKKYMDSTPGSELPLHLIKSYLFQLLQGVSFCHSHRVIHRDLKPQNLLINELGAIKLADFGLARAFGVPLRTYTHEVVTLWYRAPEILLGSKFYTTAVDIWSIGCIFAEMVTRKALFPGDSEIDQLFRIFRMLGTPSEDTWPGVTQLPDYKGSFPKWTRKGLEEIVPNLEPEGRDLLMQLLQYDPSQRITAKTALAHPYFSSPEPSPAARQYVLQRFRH
Chain of off-target kinases (Homo sapiens, UniProt P08581, M1250T) (P08581 25-1390 M1250T): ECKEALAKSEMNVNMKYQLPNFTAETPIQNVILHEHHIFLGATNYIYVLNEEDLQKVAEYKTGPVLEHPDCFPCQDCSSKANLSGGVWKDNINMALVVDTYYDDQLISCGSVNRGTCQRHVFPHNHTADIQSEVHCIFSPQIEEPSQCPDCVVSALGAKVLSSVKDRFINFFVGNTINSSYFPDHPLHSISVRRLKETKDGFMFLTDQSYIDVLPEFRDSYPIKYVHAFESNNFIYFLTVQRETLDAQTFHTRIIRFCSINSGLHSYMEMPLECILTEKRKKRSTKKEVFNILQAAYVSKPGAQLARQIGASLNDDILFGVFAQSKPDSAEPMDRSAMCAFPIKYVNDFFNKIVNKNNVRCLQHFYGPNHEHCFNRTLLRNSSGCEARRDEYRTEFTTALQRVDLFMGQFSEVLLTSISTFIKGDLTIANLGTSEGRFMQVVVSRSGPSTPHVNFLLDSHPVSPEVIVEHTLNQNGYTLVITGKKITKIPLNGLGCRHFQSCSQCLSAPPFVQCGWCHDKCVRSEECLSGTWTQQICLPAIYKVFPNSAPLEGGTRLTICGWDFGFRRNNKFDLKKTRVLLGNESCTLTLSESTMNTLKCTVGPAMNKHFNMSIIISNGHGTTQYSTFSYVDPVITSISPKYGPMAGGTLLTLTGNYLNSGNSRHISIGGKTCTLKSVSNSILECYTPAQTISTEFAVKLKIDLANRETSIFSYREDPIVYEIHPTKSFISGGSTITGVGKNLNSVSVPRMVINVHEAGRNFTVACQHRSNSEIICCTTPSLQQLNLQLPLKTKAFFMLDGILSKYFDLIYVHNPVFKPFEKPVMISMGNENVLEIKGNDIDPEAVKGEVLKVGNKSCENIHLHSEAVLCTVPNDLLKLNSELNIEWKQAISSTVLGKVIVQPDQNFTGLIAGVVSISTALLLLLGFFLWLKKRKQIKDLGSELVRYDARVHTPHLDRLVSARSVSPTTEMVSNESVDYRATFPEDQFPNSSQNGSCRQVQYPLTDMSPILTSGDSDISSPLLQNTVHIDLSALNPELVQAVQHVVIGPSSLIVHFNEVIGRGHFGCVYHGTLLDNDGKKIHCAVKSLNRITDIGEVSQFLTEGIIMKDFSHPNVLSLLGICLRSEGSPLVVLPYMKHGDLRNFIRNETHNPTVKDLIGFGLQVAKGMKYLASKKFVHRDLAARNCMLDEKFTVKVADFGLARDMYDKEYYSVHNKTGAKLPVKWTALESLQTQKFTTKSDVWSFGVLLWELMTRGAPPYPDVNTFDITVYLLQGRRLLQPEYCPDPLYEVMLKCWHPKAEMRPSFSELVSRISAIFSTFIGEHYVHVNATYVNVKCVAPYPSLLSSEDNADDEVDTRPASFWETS

SMILES: N#Cc1cc(-c2ncnc(Nc3ccc(N4CCN(C5COC5)CC4)cc3)n2)ccc1OC1CCOCC1 [Compound 1, 5-(4-((4-(4-(oxetan-3-yl)piperazin-1-yl)phenyl)amino)-1,3,5-triazin-2-yl)-2-((tetrahydro-2H-pyran-4-yl)oxy)benzonitrile]
- inhibition (off-target kinases [1]; read-out: % Inhibition 1): 2%
- inhibition (off-target kinases [1]; read-out: % Inhibition 2): 9%
- inhibition (off-target kinases [1]; read-out: % Inhibition Avg): 6%
- inhibition (off-target kinases [2]; read-out: % Inhibition 1): 26%
- inhibition (off-target kinases [2]; read-out: % Inhibition 2): 34%
- inhibition (off-target kinases [2]; read-out: % Inhibition Avg): 30%
- inhibition (off-target kinases [3]; read-out: % Inhibition 1): 3%
- inhibition (off-target kinases [3]; read-out: % Inhibition 2): -2%
- inhibition (off-target kinases [3]; read-out: % Inhibition Avg): 0%
- inhibition (off-target kinases [4]; read-out: % Inhibition 1): 100%
- inhibition (off-target kinases [4]; read-out: % Inhibition 2): 95%
- inhibition (off-target kinases [4]; read-out: % Inhibition Avg): 98%
- inhibition (off-target kinases [5]; read-out: % Inhibition 1): 3%
- inhibition (off-target kinases [5]; read-out: % Inhibition 2): 6%
- inhibition (off-target kinases [5]; read-out: % Inhibition Avg): 5%
- inhibition (off-target kinases [6]; read-out: % Inhibition 1): 24%
- inhibition (off-target kinases [6]; read-out: % Inhibition 2): 29%
- inhibition (off-target kinases [6]; read-out: % Inhibition Avg): 26%
